The values below come from paper PMC8035258 (ChemMedChem, 2021).

Chain of Mitochondrial respiratory complex II (Q8K2B3 43-664): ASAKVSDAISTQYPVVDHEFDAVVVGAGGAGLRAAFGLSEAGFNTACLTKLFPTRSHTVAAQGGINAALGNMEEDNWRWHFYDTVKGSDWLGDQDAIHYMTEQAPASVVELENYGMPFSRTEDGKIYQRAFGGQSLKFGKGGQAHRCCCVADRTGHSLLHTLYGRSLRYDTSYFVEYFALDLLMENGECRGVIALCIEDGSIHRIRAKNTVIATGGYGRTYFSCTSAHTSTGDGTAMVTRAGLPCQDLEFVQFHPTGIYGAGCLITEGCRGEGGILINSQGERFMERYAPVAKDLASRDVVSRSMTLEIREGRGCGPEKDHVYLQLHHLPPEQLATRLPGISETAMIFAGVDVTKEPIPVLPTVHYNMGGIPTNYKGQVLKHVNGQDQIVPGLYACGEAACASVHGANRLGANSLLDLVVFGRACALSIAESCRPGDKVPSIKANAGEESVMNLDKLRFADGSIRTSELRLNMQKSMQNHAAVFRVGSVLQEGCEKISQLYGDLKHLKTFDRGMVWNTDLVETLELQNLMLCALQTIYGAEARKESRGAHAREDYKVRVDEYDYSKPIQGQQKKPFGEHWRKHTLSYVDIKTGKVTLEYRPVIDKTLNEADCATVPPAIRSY
Chain of Mitochondrial respiratory complex II (Q9CQA3 31-282): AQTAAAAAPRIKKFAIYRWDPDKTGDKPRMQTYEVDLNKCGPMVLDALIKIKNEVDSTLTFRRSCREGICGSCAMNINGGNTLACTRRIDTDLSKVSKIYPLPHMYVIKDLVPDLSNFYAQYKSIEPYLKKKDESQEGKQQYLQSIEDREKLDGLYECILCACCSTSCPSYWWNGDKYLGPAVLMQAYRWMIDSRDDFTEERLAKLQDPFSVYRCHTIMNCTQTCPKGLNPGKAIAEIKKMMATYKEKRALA
Chain of Mitochondrial respiratory complex II (Q9CZB0 30-169): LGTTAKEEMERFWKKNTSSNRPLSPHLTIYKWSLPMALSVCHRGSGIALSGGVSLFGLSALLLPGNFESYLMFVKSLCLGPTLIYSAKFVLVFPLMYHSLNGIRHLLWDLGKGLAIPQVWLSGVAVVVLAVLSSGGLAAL
Chain of Mitochondrial respiratory complex II (Q9CXV1 57-159): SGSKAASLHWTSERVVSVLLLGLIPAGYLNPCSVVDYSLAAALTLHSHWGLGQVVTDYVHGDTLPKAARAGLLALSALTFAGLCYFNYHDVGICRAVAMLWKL

The first assay concerns the target Mitochondrial respiratory complex II (Mus musculus, UniProt Q8K2B3+Q9CQA3+Q9CXV1+Q9CZB0). Nature of the assay: Complex II inhibition assay. Type of assay: biochemical. The settings on record: 100 μM; mouse liver mitochondria; mean ±SD of n = 4.
Regarding `O=S1(=O)N=C(NCc2ccc(Cl)cc2)Nc2ccccc21` [Compound 16d, 3-((4-Chlorobenzyl)amino)-4H-benzo[e][1,2,4]thiadiazine 1,1-dioxide], the “% Inhibition CII (100 μM)” value was “inactive”.

Staying with this assay, now noted: read-out: % Inhibition CII (100 μM), 100 μM; mouse liver mitochondria; mean ±SD of n = 4.
A word on the inhibition: it is the share of the control response that was lost under treatment. As to `CC(C)C(C)NC1=NS(=O)(=O)c2cc(F)ccc2N1` (stereo not drawn) [Compound 15a, 7-Fluoro-3-((3-methylbutan-2-yl)amino)-4H-benzo[e][1,2,4]thiadiazine 1,1-dioxide], the inhibition at 100 µM came out at 5 ± 4.5%.
The same measure, in the same setting: the value for `O=C1Nc2ccc(F)cc2S(=O)(=O)N1` [Compound 11a, 7-Fluoro-3-oxo-3,4-dihydro-2H-1,2,4-benzothiadiazine 1,1-dioxide] was 6 ± 1.5%; that for `CSC1=NS(=O)(=O)c2ccc(Cl)cc2N1` [Compound 13b, 6-Chloro-3-methylsulfanyl-4H-1,2,4-benzothiadiazine 1,1-dioxide] was 24 ± 0.7%.
As to `Cc1ccc(CNC2=NS(=O)(=O)c3cc(Br)ccc3N2)cc1` [Compound 27c, 7-Bromo-3-((4-methylbenzyl)amino)-4H-benzo[e][1,2,4]thiadiazine 1,1-dioxide], the inhibition at 100 µM came to 29 ± 6.2%.
Consider `C=CCNC1=NS(=O)(=O)c2ccc(Cl)cc2N1` [Compound 32b, 3-(Allylamino)-6-chloro-4H-benzo[e][1,2,4]thiadiazine 1,1-dioxide], for which the inhibition at 100 µM was found to be 0%.
For the molecule `CSC1=NS(=O)(=O)c2ccccc2N1C` [Compound 42d, 4-Methyl-3-(methylthio)-4H-benzo[e][1,2,4]thiadiazine 1,1-dioxide], the inhibition at 100 µM turned out to be 0%.
`O=S1(=O)N=C(NC2CCCC2)Nc2ccc(Br)cc21` [Compound 22c, 7-Bromo-3-(cyclopentylamino)-4H-benzo[e][1,2,4]thiadiazine 1,1-dioxide]: the inhibition at 100 µM was 25 ± 7.8%.
Consider `CCNC1=NS(=O)(=O)c2cc(Br)ccc2N1` [Compound 19c, 7-Bromo-3-(ethylamino)-4H-benzo[e][1,2,4]thiadiazine 1,1-dioxide], for which the inhibition at 100 µM was found to be 11 ± 6.9%.
On the same count and under the same terms, next, `O=S1(=O)N=C(NCc2ccccc2)Nc2ccc(Br)cc21` [Compound 21c, 3-(Benzylamino)-7-bromo-4H-benzo[e][1,2,4]thiadiazine 1,1-dioxide]: 36 ± 9%; `O=C1Nc2ccc(Br)cc2S(=O)(=O)N1` [Compound 11c, 7-Bromo-3-oxo-3,4-dihydro-2H-1,2,4-benzothiadiazine1,1-dioxide]: 0%; `O=S1(=O)N=C(NCc2ccc(F)cc2)Nc2ccc(Br)cc21` [Compound 17c, 7-Bromo-3-((4-fluorobenzyl)amino)-4H-benzo[e][1,2,4]thiadiazine 1,1-dioxide]: 35 ± 9.9%.
Regarding `O=S1(=O)N=C(NCc2ccc(Cl)cc2)Nc2ccccc21` [Compound 16d, 3-((4-Chlorobenzyl)amino)-4H-benzo[e][1,2,4]thiadiazine 1,1-dioxide], the inhibition at 100 µM turned out to be 0%.
Consider `O=S1(=O)N=C(NCc2ccc(OC(F)(F)F)cc2)Nc2ccc(F)cc21` [Compound 30a, 7-Fluoro-3-((4-(trifluoromethoxy)benzyl)amino)-4H-benzo[e][1,2,4] thiadiazine 1,1-dioxide], for which the inhibition at 100 µM came to 2 ± 6.9%.
`O=S1(=O)N=C(NCCCc2ccccc2)Nc2ccccc21` [Compound 23d, 3-((3-Phenylpropyl)amino)-4H-benzo[e][1,2,4]thiadiazine 1,1-dioxide]: the inhibition at 100 µM was determined as 0%.
For `O=S1(=O)N=C(NCc2ccc(F)cc2)Nc2ccc(F)cc21` [Compound 17a, 7-Fluoro-3-((4-fluorobenzyl)amino)-4H-benzo[e][1,2,4]thiadiazine 1,1-dioxide], the inhibition at 100 µM turned out to be 1 ± 6.2%.
For the molecule `CC(C)NC1=NS(=O)(=O)c2ccc(Cl)cc2N1` [Compound 14b, 6-Chloro-3-isopropylamino-4H-1,2,4-benzothiadiazine 1,1-dioxide], the inhibition at 100 µM is 0%.
Consider `O=C1Nc2ccccc2S(=O)(=O)N1` [Compound 11d, 2H-benzo[e][1,2,4]thiadiazin-3(4H)-one 1,1-dioxide], for which the inhibition at 100 µM was found to be 0%.
Turning to `O=S1(=O)N=C(NCCc2ccccc2)Nc2ccc(F)cc21` [Compound 18a, 7-Fluoro-3-(phenethylamino)-4H-benzo[e][1,2,4]thiadiazine 1,1-dioxide], the inhibition at 100 µM came to 4 ± 15.5%.
For the molecule `O=S1(=O)N=C(NCc2ccc(F)cc2)Nc2cc(Cl)ccc21` [Compound 17b, 6-Chloro-3-((4-fluorobenzyl)amino)-4H-benzo[e][1,2,4]thiadiazine 1,1-dioxide], the inhibition at 100 µM turned out to be 0%.
In the case of `CC(C)NC1=NS(=O)(=O)c2cc(F)ccc2N1` [Compound 14a, 7-Fluoro-3-isopropylamino-4H-1,2,4-benzothiadiazine 1,1-dioxide], the inhibition at 100 µM turned out to be 4 ± 6.9%.
Take `CCNC1=NS(=O)(=O)c2cc(F)ccc2N1` [Compound 19a, 3-(Ethylamino)-7-fluoro-4H-benzo[e][1,2,4]thiadiazine 1,1-dioxide]: the inhibition at 100 µM amounted to 0%.
Turning to `CSC1=NS(=O)(=O)c2cc(Br)ccc2N1` [Compound 13c, 7-Bromo-3-methylsulfanyl-4H-1,2,4-benzothiadiazine 1,1-dioxide], the inhibition at 100 µM worked out at 10 ± 2.7%.
Still for that read-out and setting: next, `CC(C)C(C)NC1=NS(=O)(=O)c2ccccc2N1` (stereo not drawn) [Compound 15d, 3-((3-Methylbutan-2-yl)amino)-4H-benzo[e][1,2,4]thiadiazine 1,1-dioxide]: 0%; `COc1ccc(CNC2=NS(=O)(=O)c3cc(F)ccc3N2)cc1` [Compound 20a, 7-Fluoro-3-((4-methoxybenzyl)amino)-4H-benzo[e][1,2,4]thiadiazine 1,1-dioxide]: 0%.
On to `CCNC1=NS(=O)(=O)c2ccc(Cl)cc2N1` [Compound 19b, 6-Chloro-3-(ethylamino)-4H-benzo[e][1,2,4]thiadiazine 1,1-dioxide], for which the inhibition at 100 µM was found to be 0%.
With `COc1cccc(CNC2=NS(=O)(=O)c3cc(Br)ccc3N2)c1` [Compound 28c, 7-Bromo-3-((3-methoxybenzyl)amino)-4H-benzo[e][1,2,4]thiadiazine 1,1-dioxide], the inhibition at 100 µM came to 24 ± 5.2%.
For `CSC1=NS(=O)(=O)c2cc(F)ccc2N1` [Compound 13a, 7-Fluoro-3-methylsulfanyl-4H-1,2,4-benzothiadiazine 1,1-dioxide], the inhibition at 100 µM is 0%.
Same read-out and setting: next, `COc1ccccc1CNC1=NS(=O)(=O)c2ccc(Cl)cc2N1` [Compound 26b, 6-Chloro-3-((2-methoxybenzyl)amino)-4H-benzo[e][1,2,4]thiadiazine 1,1-dioxide]: 0%.
Regarding `O=S1(=O)NC(=S)Nc2ccc(F)cc21` [Compound 12a, 7-Fluoro-3-thioxo-3,4-dihydro-2H-1,2,4-benzothiadiazine 1,1-dioxide], the inhibition at 100 µM was 0%.
With `O=S1(=O)N=C(NCCc2cccc(C(F)(F)F)c2)Nc2ccc(F)cc21` [Compound 41a, 7-Fluoro-3-((3-(trifluoromethyl)phenethyl)amino)-4H-benzo[e][1,2,4] thiadiazine 1,1-dioxide], the inhibition at 100 µM worked out at 20 ± 5.2%.
In the case of `CC(C)C(C)NC1=NS(=O)(=O)c2ccc(Cl)cc2N1` (stereo not drawn) [Compound 15b, 6-Chloro-3-((3-methylbutan-2-yl)amino)-4H-benzo[e][1,2,4]thiadiazine 1,1-dioxide], the inhibition at 100 µM amounted to 0%.
On the same count and under the same terms, the value for `O=S1(=O)N=C(NCc2ccccc2)Nc2ccccc21` [Compound 21d, 3-(Benzylamino)-4H-benzo[e][1,2,4]thiadiazine 1,1-dioxide] was 0%.
